In patent publication EP0926242A1, “GLIOTOXIN DERIVATIVES AND ANTICANCER AGENT COMPRISING THE SAME” (priority 1996, dated 1998):
≈ marks a conversion by molar mass, not a printed value. Read-outs that look alike come from different tables or passages of the source.

Assays:
[1] = system: Human carcinoma of the colon cell strain HCT-116; experiment: Tertiary culture using test human cancer, killed cells by MTT method; format: cell-based; conditions: incubated 3 days
Method: Tertiary cultures were carried out using a human carcinoma of the colon tissue in stage 2b. The tertiary cultures were carried out according to the reported method (Int.J.Cancer Res., 82, 607-612 (1991), Gan to Kagakuryoho, 18, 239-243 (1991), Gan to Kagakuryoho, 19, 743-748 (1992)). The extracted tissue of carninoma of the colon was cut into square pieces having a side of about 2 mm, and incubated in a RPMI- 1640 medium containing 10 % fetal calf serum under 5 % CO2 at 37 °C for 3 days. Existing anticancer agents or acetylgliotoxin were diluted and added, and further incubated for 3 days. Then, the rate of killed cells was determined by the MTT method. The tertiary cultures using the test human cancer were carried out as follows: Human carcinoma of the colon cell strain HCT-116 was transplanted into the subcutaneous tissue of a nude mouse (Balb nu/nu) to induce tumor. The cancer tissue was extracted from the tumor-induced portion, and cut into square pieces having a side of 2 mm. The evaluation of the existing anticancer agents and acetylyliotoxin was earried out according to the aforementioned method.

[2] = system: mouse carcinoma of the colon cells colon 26; experiment: Evaluation of cytotoxity of synthesized derivatives by the MTT method (Example 8); format: cell-based; conditions: for IC50: Mus musculus
Method: (§1) Antitumor activity of the synthesized derivatives against various cancer cells was measured by the MTT method. The cancer cells used were mouse carcinoma of the colon cells colon 26 (Gan Kenkyu-sho, Gan Kenkyu-kai) and mouse leukemia cells P388 (Dai-Nippon Seiyaku), and the culture medium contained 10 % fetal calf serum. Each cells were placed in each well of 96 well microplate n an amount of […]/50 µL/well and 50 µL of a test compound aqueous solution in each concentration was added. After incubating at 37 °C for 3 days, the number of survival cells was measured by the MTT method, and a dose-reaction curve was made. Thereby, the concentration of each test compound inhibiting multiplication at a rate of 50 % (IC50) was calculated.

[3] = system: human carcinoma of the colon cells HCT-116; experiment: Anticancer effect in vivo against HCT 116 (Example 9 B); parameters: species or system mouse; conditions: 5 [mg/kg]×3 (i.p.), 7,11,15th days, Balb/c nu/nu mice
Method: (§2) • (A) Evaluationin vivo using mouse carcinoma of the colon cells colon 26 CDFI mice (female : 4 weks age) were bought, and colon 26 subcultured in the subcutaneous tissue of the mouse was taken out, and cut into small pieces by a scissors. The cancer cells were transplanted into subcutaneous tisue of CDFI mice by a trucker. The day was assigned 0 day, and the tumor was measured by a slide caliper after 7 days. The volume of the tumor was calculated, and divided into groups (each group : n = 4). The text compound was dissolved in dimethylsulfoxide, and diluted with 5 % Tween 80- saline aqueous solution. […] The administration was carried out after 7 days, after 11 days and after 15 days or after 7 days and after 8 days from the transplantation at a rate of once per one day. 21st day from the transplantation, the volume of tumor was measured and the volume of tumor and the inhibition against tumor multiplication rate (I.R.) were calculated. The volume of tumor was calculated by the following formula. (Tumore Volume [mm)^3 (]= Minor Axis [mm])^2 × Major Axis [mm] × (1/2) [formula] • The inhibition against tumor multiplication rate (I.R.) was calculated by the following formula. I.R. [%] = {1- (Average Tumor Volume of Administration Group / Average Tumor Volume of Control Group)) × 100 [formula] • (B) Evaluation in vivo using human carcinoma of the colon cells HCT-116 Balb/c nu/nu mice (female : 5 weks age) were bought, and HCT-116 (Dainippon Seiyaku) subcultured in the subcutaneous tissue of the mouse was taken out, and cut into small pieces by a scissors. The cancer cells were transplanted into subcutaneous tissue of […] mice by a trucker. The day was assigned 0 day, and the tumor was measured by a slide caliper after 7 days. The volume of the tumor was calculated, and divided into groups (each group : n = 2). The text compound was dissolved in dimethylsulfoxide, and diluted with 5 % Tween 80- saline aqueous solution. […] The administration was carried out after 7 days, after 11 days and after 15 days from the transplantation at a rate of once per one day. 21st day from the transplantation, the volume of tumor was measured and the volume of tumor and the inhibition against tumor multiplication rate (I.R.) were calculated by the above formulas.

[4] = system: mouse leukemia cells P388; experiment: Evaluation of cytotoxity of synthesized derivatives by the MTT method (Example 8); format: cell-based; conditions: for IC50: Mus musculus, read-out: P388 IC50[ng/mL]
Method: as §1

[5] = system: mouse carcinoma of the colon cells colon 26; experiment: Anticancer effect in vivo against colon 26 (Example 9 A); conditions: CDFI mice
Method: as §2

[6] = 2.5[mg/kg]×3 (i.p.), 7,11,15th days
[7] = 5 [mg/kg]×3 (i.p.), 7,11,15th days
[8] = 10 [mg/kg]×2 (i.p.), 7,8th days
[9] = 72 h, colon 26, 3 days, MTT, read-out: colon 26 IC 50
[10] = 10 [mg/kg]×2 (i.v.), 7, 14th days

CC[C@]1(O)C[C@@H]2CN(CCc3c([nH]c4ccccc34)[C@@](C(=O)OC)(c3cc4c(cc3OC)N(C)[C@H]3[C@@](O)(C(=O)OC)[C@H](OC(C)=O)[C@]5(CC)C=CCN6CC[C@]43[C@@H]65)C2)C1 [Vinblastine]
I. R. (%) ([1]; conc. 100 ug/mL): 20%

COC(=O)COc1cccc2c1N1C(=O)[C@]3(CO)SS[C@]1(C2)C(=O)N3C [Compound of Example 7, (3S, 10aR)―2,3―dihydro―3― (hydroxymethyl)―6―[(methoxycarbonyl)methyloxy]―2― methyl―10H―3,10a―epidiopyrazino[1,2―a]indole―1,4― dione]
colon 26 IC 50 ([2]; colon 26, 3 days, MTT): 82 ng/mL

CC(=O)O[C@H]1C(=O)[C@@]2(C)[C@H]([C@H](OC(=O)c3ccccc3)[C@]3(O)C[C@H](OC(=O)[C@H](O)[C@@H](NC(=O)c4ccccc4)c4ccccc4)C(C)=C1C3(C)C)[C@]1(OC(C)=O)CO[C@@H]1C[C@@H]2O [T A X O L, Taxol]
I. R. (%) ([1]; conc. 100 ug/mL): 19%

[NH2][Pt]([NH2])([Cl])[Cl] [CDDP, Cisplatin, reference compound]
I. R. (%) ([1]; conc. 25 ug/mL): 6%
I.R. (21st day) [3]: 15.6%
I.R.Max [3]: 47.5%

CN1C(=O)[C@]23Cc4cccc(O)c4N2C(=O)[C@]1(CO)SS3 [Compound of Example 4, (3S, 10aR)―2,3―dihydro―6―hydroxy―3―(hydroxymethyl)― 2―methyl―10H―3,10a―epidithiopyrazino[1,2―a]indole― 1,4―dione]
IC50 ([2]; Colon 26, 72 h, read-out: colon 26 IC 50 [ng/mL]): 110 ng/mL (≈ 0.339 µM)
IC50 ([4]; P388, 72 h): 21 ng/mL (≈ 0.0647 µM)
I.R. (21st day) [5, 6]: 40.1%
I.R.Max [5, 6]: 54.5%
I.R. (21st day) [5, 7]: 52.9%
I.R.Max [5, 7]: 58.9%
I.R. (21st day) [5, 8]: 43.5%
I.R.Max [5, 8]: 79.8%
I.R. (21st day) [3]: 63.8%
I.R.Max [3]: 66.5%

O=c1[nH]cc(F)c(=O)[nH]1 [5-F U, 5-Fluorouracil]
I. R. (%) ([1]; conc. 500 ug/mL): 38%

CN1C(=O)[C@]23Cc4cccc(OCC#N)c4N2C(=O)[C@]1(CO)SS3 [Compound of Example 6, (3S, 10aR)―6―(cyanomethoxy)―2,3―dihydro―3― (hydroxymethyl)―2―methyl―10H-3,10a―a― epidithiopyrazino[1,2―a]indole―1,4―dione]
colon 26 IC 50 ([2]; colon 26, 3 days, MTT): 70 ng/mL
P388 IC50[ng/mL] ([4]; P388, 3 days, MTT): 5.8 ng/mL

CN1C(=O)[C@]23Cc4ccccc4N2C(=O)[C@]1(CO)SS3 [Compound of Example 3, (3S, 10aR)―2,3-dihydro―3―(hydroxymethyl)―2― methyl―10H―3,10a―epidithiopyrazino[1,2―a]indole― 1,4―dione]
IC50 [2, 9]: 58 ng/mL (≈ 0.188 µM)
IC50 ([4]; 72 h, P388, 3 days, MTT): 3.2 ng/mL (≈ 0.0104 µM)
I.R. (21st day) [5, 6]: 35.2%
I.R.Max [5, 6]: 35.3%
I.R. (21st day) [5, 7]: 43.7%
I.R.Max [5, 7]: 51.6%

CC(=O)Oc1cccc2c1N1C(=O)[C@]3(CO)SS[C@]1(C2)C(=O)N3C [Compound of Example 5, (3 S, 10aR)―6―acetoxy―2,3―dihydro―3―(hydroxymethyl)― 2―methyl―10H―3,10a―epidithiopyrazino[1,2―a]indole―1, 4―dione]
IC50 [2, 9]: 74 ng/mL (≈ 0.202 µM)
IC50 ([4]; 72 h, P388, 3 days, MTT): 13 ng/mL (≈ 0.0355 µM)

CN1C(=O)[C@]23CC4=CC=C[C@H](O)[C@H]4N2C(=O)[C@@]1(CO)SS3 [Gliotoxin, gliotoxin]
I. R. (%) ([1]; conc. 12.5 ug/mL): 28%
I. R. (%) ([1]; conc. 25 ug/mL): 66%

COc1cccc2c1C(=O)c1c(O)c3c(c(O)c1C2=O)C[C@@](O)(C(=O)CO)C[C@@H]3O[C@H]1C[C@H](N)[C@H](O)[C@H](C)O1 [Adriamycin, reference compound]
I. R. (%) ([1]; conc. 6 ug/mL): 0%
I.R. (21st day) [5, 10]: 38.9%
I.R.Max [5, 10]: 38.9%

CO[C@@]12[C@H](COC(N)=O)C3=C(C(=O)C(C)=C(N)C3=O)N1C[C@@H]1N[C@@H]12 [M M C, Mitomycin C]
I. R. (%) ([1]; conc. 15 ug/mL): 34%
